Data reported in patent US5594009A, “Fused pyrrolocarbazoles” (priority 1995, dated 1997).
Read-outs that look alike come from different tables or passages of the source.

Columns and labels:
[1] = tested on: choline acetyltransferase (ChAT) activity in dissociated rat embryonic spinal cord culture; test: Spinal Cord ChAT Activity Assay; format: cell-based; conditions: ChAT measured after 48 hours
[2] = tested on: NT-3 induced ChAT activity of rat basal forebrain cultures; test: Enhancement of Neurotrophin (NT-3) Activity Assay, ChAT activity in basal forebrain cultures; format: cell-based; conditions: for ChAT activity in the absence of NT-3: compound added alone to basal forebrain neurons, no NT-3; for ChAT activity in the presence of NT-3: with 100 ng/ml NT-3
Method: Fused pyrrolocarbazoles were tested for the ability to enhance the activity of the neurotrophin NT-3 in basal forebrain cultures. ChAT activity was assayed as a measure of cholinergic neuron function and survival. The concentration of NT-3 (100 ng/ml) used in these experiments increased ChAT activity over control cultures (untreated with NT-3 or a fused pyrrolocarbazole) by 140%.
Methods. Basal forebrain cultures were prepared from embryonic rats (embryonic day 17) and dissociated with the neutral protease Dispase™. Cells were plated at a density of 4×10^5 cells/cm^2 on poly-1-ornithine coated plastic tissue culture plates in a mixture of DMEM and F12 media (50/50 v/v GIBCO) supplemented with 5% horse serum and 0.5% fetal bovine serum. Cells were incubated at 37° C. in a humidified atmosphere of 5% CO2 /95% air for 5 days. ChAT activity was measured as described in Example III(A)(1).
Recombinant rat NT-3 was produced by using a recombinant baculovirus expression vector under the control of the polyhedron virus promoter (Fraser, In Vitro Cell. and Dev. Biol. 25:225-235 (1989)). The plasmid pXM-NT3 (Hallbook et al., Neuron 6:845-858 (1991), which contained the rat NT-3 cDNA clone, was provided by Dr. Ira Black (University of Medicine and Dentistry of New Jersey, Piscataway, N.J.). NT-3 cDNA was subcloned into the transfer vector pVL1392 (In Vitrogen Corp., San Diego, Calif.) for recombinant virus production. Recombinant baculovirus was produced as described in Meyer et al. (Meyer at al., J. Neurochem 62:825-833 (1994)).

protein kinase C = test: PKC Activity Inhibition Assay; format: biochemical
Method: Fused pyrrolocarbazoles inhibited the activity of protein kinase C (Table VI). The protein kinase C assay has been disclosed (Murakata et al., U.S. Pat. No. 4,923,986; Kikkawa et al., J. Biol. Chem. 257:13341-13348 (1982)). The assay was performed with several concentrations of fused pyrrolocarbazoles. The concentration at which protein kinase C was 50% inhibited (IC50) was determined.

[3] = tested on: ChAT activity of basal forebrain cultures; test: Basal Forebrain ChAT Activity Assay; format: cell-based, rat; conditions: for activity at 0.25 µM: 250 nM
Method: Fused pyrrolocarbazoles were tested for the ability to increase ChAT activity of basal forebrain cultures.
Methods: The basal forebrain was dissected from rat embryos (day 17 or 18 embryos) and the cells were dissociated with a neutral protease (Dispase™, Collaborative Research). Neurons were plated at a density of 5×10^4 cells/well (1.5×10^5 cells/cm^2) in poly-1-ornithine and laminin coated plates. Cells were cultured in serum-free N2 medium containing 0.05% BSA at 37° C. in a humidified atmosphere, 5% CO2 /95% air. ChAT activity was assessed 5 days after plating by using the ChAT assay as described in Example III(A)(1).

chick DRG neurons = test: DRG Neuron Survival Assay (calcein AM); format: cell-based; conditions: 48 hours; for viability at 0.1 µM / viability at 0.25 µM / viability at 0.5 µM: Gallus gallus, DRG neuron, read-out: Neuronal Survival (% of Control); for viability at 0.25 µM: 250 nM; for viability at 0.5 µM: 500 nM
Method: Fused pyrrolocarbazoles promoted dorsal root ganglion (DRG) neuronal survival in cultures of chick DRG neurons. Cell survival was measured by uptake of calcein AM, an analog of the viable dye, fluorescein diacetate. Calcein is taken up by viable cells and cleaved intracellularly to fluorescent salts which are retained by intact membranes of viable cells. Microscopic counts of viable neurons correlate directly with relative fluorescence values obtained with the fluorimetric viability assay. This method thus provides a reliable and quantitive measurement of cell survival in the total cell population of a given culture (Bozyczko-Coyne et al., J. Neur. Meth. 50:205-216, 1993).
Methods: Dorsal root ganglia were dissected from embryonic age day 9 chick embryos and dissociated cells prepared by subsequent Dispase (neutral protease, Collaborative Research) dissociation. Neurons were seeded at low density (3×10^4 cells/cm^2) into 96 well poly-L-ornithine and laminin coated plates. Cells were cultured for 48 hours in serum-free N2 medium (Bottenstein and Sato, 1979) at 37° C. in a humidified atmosphere, 5% CO2 /95% air. Cell survival was assessed at 48 hours using the viable fluorimetric assay described above.

trkA tyrosine kinase = trkA tyrosine kinase (Homo sapiens, UniProt P04629); test: trkA Tyrosine Kinase Activity Inhibition Assay (ELISA); format: biochemical; conditions: 16 μM ATP, 37° C., 15 min; read-out: INHIBITION OF trkA KINASE IC50
AT-2 cells = test: Inhibition of Growth of Prostate Cancer Cell Line (MTS assay); format: cell-based; conditions: 72 h, read-out: AT-2 cell growth IC50
Method: AT-2 cells are a prostate cancer cell sub-line derived from the Dunning H tumor, graciously provided to us by Dr. John Isaacs (John Hopkins, M. D.). Unlike the Dunning H tumor cells, AT-2 cells can be grown in vitro.
Methods: At-2 cells ([…]) were plated on tissue culture plastic in 96-well plates in the presence of RPMI-1640 medium containing 10% fetal calf serum, 250 nM dexamethasone, 2 mM glutamine, 1 mM sodium pyruvate, and penicillin/streptomycin antibiotics. The next day, compounds were added at 4 concentrations (10, 1, 0.1, 0.01 μM) to determine the approximate IC50 range. Cultures were assayed 3 days later for cell number using the MTS [(3-(4,5-dimethylthiazol-2-yl)-5-(3-carboxymethoxyphenyl)-2-(4-sulfophenyl)-2H-tetrazolium, inner salt)] assay. The MTS assay (purchased as a kit from Promega) measures the formation of an aqueous soluble formazan (detected by a plate reader at 490nm) produced by the bioreduction of a tetrazolium compound (MTS) in metabolically active cells via mitochondrial succinate dehydrogenase. After determining linearity of the substrate incubation time over a range of cell plating densities, the amount of product measured is directly proportional to cell number. MTS (333 ug/ml) and 25 μM phenazine methosulfate are mixed and added directly to the culture medium, and incubated at 37° C. in the 5% CO2 /95% air incubator for 0.5-4 h. Absorbance of the product at 490 nm is read on the BIO-TEK plate reader. Background values were obtained from wells containing culture medium with substrate solution, but no cells. In addition, values were also obtained from wells containing cells plated at day 0 and assayed on the day compound was added (day 1) in order to determine the number of cells at the time compound was added. After the initial dose-finding experiment was completed, subsequent experiments were set up so that there were 3 or more concentrations near the predicted IC50.

[4] = tested on: lumbar motoneurons of chick embryos; test: Inhibition of Motoneuron Death In Ovo; format: in vivo; conditions: for % of motoneurons rescued versus control / Number of motoneurons mean ± SD: E6-E9; for Number of motoneurons mean ± SD: one side of spinal cord
Method: The samples (50 ul) were applied to the vascularized chorioallantoic membrane through a window in the egg shell as previously described (Oppenheim et al., 1988). Embryos were sacrificed on E10 and spinal cords were removed, fixed in Carnoy's solution (10% acetic acid, 60% ethanol, 30% chloroform), embedded in paraffin, sectioned at 8 um, and stained with thionin as described previously (Oppenheim et al., 1988). Motoneurons (identified by morphology and position) were counted by an individual blind to the treatment conditions in every tenth section according to previously established criteria (Oppenheim et al., 1982, Oppenheim, 1986).

[5] = Rattus norvegicus, 120 h, read-out: ChAT Activity (% of Control)

Sequence of trkA tyrosine kinase (P04629 33-796): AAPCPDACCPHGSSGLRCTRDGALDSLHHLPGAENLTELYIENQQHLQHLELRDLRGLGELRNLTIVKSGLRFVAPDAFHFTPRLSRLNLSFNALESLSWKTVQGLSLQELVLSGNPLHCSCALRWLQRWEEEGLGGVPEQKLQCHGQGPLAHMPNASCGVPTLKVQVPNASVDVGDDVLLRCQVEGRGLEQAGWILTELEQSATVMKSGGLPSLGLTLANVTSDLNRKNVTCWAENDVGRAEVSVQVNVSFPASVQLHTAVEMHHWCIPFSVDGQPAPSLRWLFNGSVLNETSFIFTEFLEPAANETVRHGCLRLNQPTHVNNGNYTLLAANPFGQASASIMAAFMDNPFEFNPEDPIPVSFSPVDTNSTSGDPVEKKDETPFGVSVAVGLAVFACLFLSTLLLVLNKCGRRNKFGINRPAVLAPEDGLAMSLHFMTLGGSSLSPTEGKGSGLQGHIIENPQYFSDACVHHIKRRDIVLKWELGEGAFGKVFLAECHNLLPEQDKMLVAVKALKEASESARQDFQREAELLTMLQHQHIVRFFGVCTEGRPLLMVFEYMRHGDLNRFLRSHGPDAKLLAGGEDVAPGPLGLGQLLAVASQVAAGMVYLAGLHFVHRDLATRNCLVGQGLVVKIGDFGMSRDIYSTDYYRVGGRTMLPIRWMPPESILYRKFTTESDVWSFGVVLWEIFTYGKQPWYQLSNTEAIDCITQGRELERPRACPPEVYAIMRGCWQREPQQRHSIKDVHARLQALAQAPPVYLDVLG

O=C1NC(=O)c2c1c1c(c3[nH]c4ccc(Br)cc4c23)Cc2ccccc2-1 [Compound I-6, 3-Bromo-6H, 12H, 13H-indeno[2,3-c]pyrrolo[3,4-c]carbazole-5,7(5H, 7H),-dione]
Spinal Cord ChAT Activity, % of Control, untreated cultures [1]: 209 % of Control
ChAT activity in the absence of NT-3 [2]: no effect on ChAT activity
ChAT activity in the presence of NT-3 [2]: enhanced ChAT activity
IC50 (protein kinase C): 1000 nM

O=C1NCc2c1c1c(c3[nH]c4ccc(F)cc4c23)Cc2ccccc2-1 [Compound I-12, 3-Fluoro-5H, 6H, 12H, 13H-indeno[2,3-a]pyrrolo[3,4-c]carbazole-7(7H)one]
Spinal Cord ChAT Activity, % of Control, untreated cultures [1]: 173 % of Control
activity at 0.1 µM ([3]; Rattus norvegicus, 120 h, 100 nM, read-out: ChAT Activity (% of Control)): 279%
activity at 0.25 µM [3, 5]: 389%
viability at 0.1 µM (chick DRG neurons; 100 nM): 126%
viability at 0.25 µM (chick DRG neurons): 165%
viability at 0.5 µM (chick DRG neurons): 178%
IC50 (protein kinase C): 85 nM
IC50 (trkA tyrosine kinase): 26.7 nM

O=C1NC(=O)c2c1c1c(c3[nH]c4ccccc4c23)CCc2ccccc2-1 [Compound I-14, 12,13-Dihydro-6H, 14H-naphthyl[3,4-a]pyrrolo[3,4-c]carbazole-5,7(5H, 7H)dione]
Spinal Cord ChAT Activity, % of Control, untreated cultures [1]: 153 % of Control
IC50 (protein kinase C): 15 nM
IC50 (AT-2 cells): 3.07 µM

O=C1NCc2c3c(c4[nH]c5ccccc5c4c21)CCc1ccccc1-3 [Compound I-16, 12,13-dihydro-6H, 7H, 14H-naphthyl[3,4-a]pyrrolo[3,4-c]carbazole-5(5H)one]
Spinal Cord ChAT Activity, % of Control, untreated cultures [1]: 142 % of Control
IC50 (protein kinase C): 35 nM

O=C1NCc2c1c1c(c3[nH]c4ccccc4c23)CCc2ccccc2-1 [Compound I-17, 12,13-Dihydro-5H, 6H, 14H-naphthy[3,4-a]pyrrolo[3,4-c]carbazole-7(7H)one]
Spinal Cord ChAT Activity, % of Control, untreated cultures [1]: 197 % of Control
IC50 (protein kinase C): 1000 nM
IC50 (trkA tyrosine kinase): 66 nM

O=C1NC(=O)c2c1c1c3ccccc3[nH]c1c1oc3ccccc3c21 [Compound I-21, 6H, 13H -Benzofuranyl[2,3-a]pyrrolo[3,4-c]carbazole-5,7(5H, 7H)dione]
Spinal Cord ChAT Activity, % of Control, untreated cultures [1]: 122 % of Control
IC50 (AT-2 cells; 3 days, MTS): > 10 µM

O=C1NCc2c1c1c(c3[nH]c4ccc(F)cc4c23)CCc2ccccc2-1 [Compound I-22, 12,13-Dihydro-3-fluoro-5H, 6H, 14H-naphthyl[3,4-a]pyrrolo[3,4-c]carbazole-7(7H)one]
Spinal Cord ChAT Activity, % of Control, untreated cultures [1]: 143 % of Control
IC50 (protein kinase C): 250 nM

O=C1NCc2c3c(c4[nH]c5ccc(F)cc5c4c21)Cc1ccccc1-3 [Compound I-23, 3-Fluoro-6H, 7H, 12H, 13H -indeno[2,3-a]pyrrolo[3,4-c]carbazole-5(5H)one]
Spinal Cord ChAT Activity, % of Control, untreated cultures [1]: 208 % of Control
Neuronal Survival (% of Control) (chick DRG neurons; 100 nM): inactive
viability at 0.25 µM (chick DRG neurons): 128%
viability at 0.5 µM (chick DRG neurons): 135%
IC50 (protein kinase C): 60 nM
IC50 (trkA tyrosine kinase): 70.6 nM

C=CCn1c2ccccc2c2c3c(c4c(c21)Cc1ccccc1-4)C(=O)NC3 [Compound I-26, 13-Allyl-5H,6H,12H-indeno[2,3-a]pyrrolo[3,4-c]carbazole-7(7H)one]
Spinal Cord ChAT Activity, % of Control, untreated cultures [1]: 167 % of Control
IC50 (protein kinase C): 300 nM

O=C1NCc2c1c1c(c3[nH]c4ccc(CCc5ccccn5)cc4c23)Cc2ccccc2-1 [Compound I-34]
Spinal Cord ChAT Activity, % of Control, untreated cultures [1]: 254 % of Control
ChAT Activity (% of Control) ([3]; 100 nM): inactive
ChAT Activity (% of Control) ([3]; 500 nM): inactive
ChAT Activity (% of Control) ([3]; 1000 nM): inactive
activity at 0.25 µM [3, 5]: 192%
viability at 0.1 µM (chick DRG neurons; 100 nM): 159%
viability at 0.25 µM (chick DRG neurons): 203%
viability at 0.5 µM (chick DRG neurons): 207%
% of motoneurons rescued versus control ([4]; 0.015 ug/egg daily): 11%
Number of motoneurons mean ± SD ([4]; 0.015 ug/egg daily): 10480 ± 585
% of motoneurons rescued versus control ([4]; 0.15 ug/egg daily): 7%
Number of motoneurons mean ± SD ([4]; 0.15 ug/egg daily): 10135 ± 354
% of motoneurons rescued versus control ([4]; 0.3 ug/egg daily): 23%
Number of motoneurons mean ± SD ([4]; 0.3 ug/egg daily): 11593 ± 654
% of motoneurons rescued versus control ([4]; 0.6 ug/egg daily): 27%
Number of motoneurons mean ± SD ([4]; 0.6 ug/egg daily): 11976 ± 1106
increase in motoneuron survival in treated vs. control embryos, maximal effect ([4]; 0.6 ug/egg, vehicle-treated control): 27%
number of surviving lumbar motoneurons / naturally occurring motoneuron death (in words) ([4]; daily application to chorioallantoic membrane, E6 to E9): dose-dependent increase in the number of surviving lumbar motoneurons
dose at which the maximal effect was achieved ([4]; daily dose): 0.6 ug/egg

O=C1NC(=O)c2c1c1c(c3[nH]c4cc(Cl)ccc4c23)Cc2ccccc2-1 [Compound Ia-1, 2-Chloro-6H , 12H, 13H-indeno[2,3a]pyrrolo[3,4-c]carbazole-5,7(5H, 7H)-dione]
Spinal Cord ChAT Activity, % of Control, untreated cultures [1]: 139 % of Control
ChAT activity in the absence of NT-3 [2]: no effect on ChAT activity
ChAT activity in the presence of NT-3 [2]: enhanced ChAT activity

B1: NT-3: Recombinant rat NT-3 produced by using a recombinant baculovirus expression vector (protein, UniProt P18280 140-258, looked up)
Neurotrophin-3: YAEHKSHRGEYSVCDSESLWVTDKSSAIDIRGHQVTVLGEIKTGNSPVKQYFYETRCKEARPVKNGCRGIDDKHWNSQCKTSQTYVRALTSENNKLVGWRWIRIDTSCVCALSRKIGRT
modifications: baculovirus-expressed
notes: Recombinant rat NT-3 produced by using a recombinant baculovirus expression vector
increase of ChAT activity over control cultures ([2]; NT-3 100 ng/ml, control untreated with NT-3 or fused pyrrolocarbazole): 140%
